Experimental data as given in patent publication US20160030562A1, “METHODS TO ENHANCE CANCER TREATMENT” (INTERNATIONAL BUSINESS MACHINES CORPORATION, priority 2011, published 2016).

Test system: breast cancer
Experiment: Treatment of Patient A (Stage II breast cancer)
Type: in vivo, human
Conditions: tamoxifen alone, 20 mg a day, year 3 of 5-year treatment
Procedure: Patient A has Stage II breast cancer. Patient A is in year 3 of a 5-year treatment with tamoxifen (tamoxifen prescribed at 20 mg a day for 5 years) but no regression in patient's breast cancer is apparent. Additional treatment is desired.
Cholesterol deprivation therapy is prescribed for Patient A. Patient A prefers a vegan diet, so Patient A's diet includes no meat or animal products, no saturated fats, and monounsaturated and polyunsaturated fats in moderation. Vegetable proteins, fruits, vegetables, and grains are primary food sources. A multivitamin with vitamin D and calcium is prescribed. […] CDT is prescribed for 8 months.
Patient A is treated with anti-CD cancer cell antibodies. Initial antibody loading dose of 1.3 g antibody preparation is administered as a two hour IV infusion, followed by weekly doses of about 0.6 g administered as a 30 minute infusion of the antibody preparation. Antibody and CDT treatments continue for 6 months.
As a result of combination treatment with CDT diet, statins, anti-CD cancer cell antibodies, and tamoxifen, Patient A's breast cancer regresses.

CC/C(=C(\c1ccccc1)c1ccc(OCCN(C)C)cc1)c1ccccc1 [tamoxifen]
regression of breast cancer: no regression
